The results in this text go back to the NIST ThermoML archive (doi:10.1021/je900722m).

± gives the expanded uncertainty stated by the source.

For one data set the following is noted: 303.15 K; 101.33 kPa; Liquid.
Turning to `CC(C)CO` [2-methyl-1-propanol], the mass density (as a rule, the mass of a sample divided by its volume) is 794.064 ± 0.46 kg/m3 and the viscosity (commonly the resistance of a fluid to flow) turned out to be 2.649 ± 0.045 mPa·s.

On to `CCCCO` [butan-1-ol], for which the mass density amounted to 802.213 ± 0.44 kg/m3 and the viscosity amounted to 2.296 ± 0.039 mPa·s.

Turning to `CCC(C)O` (stereo not given) [butan-2-ol], the mass density stood at 798.351 ± 0.48 kg/m3 and the viscosity is recorded as 2.607 ± 0.045 mPa·s.

The data set is the same for the next values; noted with them: 308.15 K; 101.33 kPa; Liquid.
On to `CC(C)CO` [2-methyl-1-propanol], for which the mass density amounted to 790.123 ± 0.46 kg/m3 and the viscosity is recorded as 2.28 ± 0.039 mPa·s.

Turning to `CCCCO` [butan-1-ol], the mass density was found to be 798.343 ± 0.45 kg/m3 and the viscosity was 2.025 ± 0.035 mPa·s.

For the compound `CC(C)(C)O` [2-methylpropan-2-ol], the mass density worked out at 770.365 ± 0.5 kg/m3 and the viscosity is 2.69 ± 0.046 mPa·s.

On to `CCC(C)O` (stereo not given) [butan-2-ol], for which the mass density is 794.052 ± 0.48 kg/m3 and the viscosity is 2.163 ± 0.037 mPa·s.

Staying with this data set, now noted: 313.15 K; 101.33 kPa; Liquid.
For the compound `CC(C)CO` [2-methyl-1-propanol], the mass density was 786.12 ± 0.47 kg/m3 and the viscosity came to 1.965 ± 0.034 mPa·s.

For the compound `CCCCO` [butan-1-ol], the mass density turned out to be 794.425 ± 0.45 kg/m3 and the viscosity is on record as 1.795 ± 0.031 mPa·s.

Take `CC(C)(C)O` [2-methylpropan-2-ol]: the mass density was 765.07 ± 0.51 kg/m3 and the viscosity is recorded as 2.142 ± 0.037 mPa·s.

Take `CCC(C)O` (stereo not given) [butan-2-ol]: the mass density is given as 789.658 ± 0.49 kg/m3 and the viscosity is on record as 1.84 ± 0.032 mPa·s.

Staying with this data set, now noted: 318.15 K; 101.33 kPa; Liquid.
As to `CC(C)CO` [2-methyl-1-propanol], the mass density is 782.061 ± 0.48 kg/m3 and the viscosity is 1.692 ± 0.03 mPa·s.

For `CCCCO` [butan-1-ol], the mass density was determined as 790.465 ± 0.46 kg/m3 and the viscosity came to 1.595 ± 0.028 mPa·s.

With `CC(C)(C)O` [2-methylpropan-2-ol], the mass density was found to be 759.675 ± 0.52 kg/m3 and the viscosity worked out at 1.737 ± 0.03 mPa·s.

As for `CCC(C)O` (stereo not given) [butan-2-ol], the mass density is recorded as 785.159 ± 0.5 kg/m3 and the viscosity is 1.557 ± 0.028 mPa·s.

Staying with this data set, now noted: 323.15 K; 101.33 kPa; Liquid.
`CC(C)CO` [2-methyl-1-propanol]: the mass density was 777.932 ± 0.48 kg/m3 and the viscosity was 1.482 ± 0.026 mPa·s.

In the case of `CCCCO` [butan-1-ol], the mass density came out at 786.456 ± 0.47 kg/m3 and the viscosity was 1.417 ± 0.025 mPa·s.

For `CC(C)(C)O` [2-methylpropan-2-ol], the mass density was determined as 754.193 ± 0.53 kg/m3 and the viscosity amounted to 1.428 ± 0.025 mPa·s.

For the compound `CCC(C)O` (stereo not given) [butan-2-ol], the mass density amounted to 780.552 ± 0.51 kg/m3 and the viscosity is 1.333 ± 0.024 mPa·s.

The same data set, now with this note: 328.15 K; 101.33 kPa; Liquid.
Consider `CC(C)CO` [2-methyl-1-propanol], for which the mass density stood at 773.732 ± 0.49 kg/m3 and the viscosity worked out at 1.268 ± 0.023 mPa·s.

Turning to `CCCCO` [butan-1-ol], the mass density is reported as 782.399 ± 0.47 kg/m3 and the viscosity was 1.271 ± 0.023 mPa·s.

With `CC(C)(C)O` [2-methylpropan-2-ol], the mass density stood at 748.621 ± 0.54 kg/m3 and the viscosity was 1.196 ± 0.022 mPa·s.

Consider `CCC(C)O` (stereo not given) [butan-2-ol], for which the mass density is listed as 775.832 ± 0.51 kg/m3 and the viscosity worked out at 1.151 ± 0.021 mPa·s.

The data set is the same for the next values; noted with them: 333.15 K; 101.33 kPa; Liquid.
For `CC(C)CO` [2-methyl-1-propanol], the mass density is recorded as 769.448 ± 0.5 kg/m3 and the viscosity was found to be 1.116 ± 0.02 mPa·s.

Regarding `CCCCO` [butan-1-ol], the mass density was 778.281 ± 0.48 kg/m3 and the viscosity is 1.138 ± 0.021 mPa·s.

Take `CC(C)(C)O` [2-methylpropan-2-ol]: the mass density amounted to 742.954 ± 0.55 kg/m3 and the viscosity came to 1.016 ± 0.019 mPa·s.

In the case of `CCC(C)O` (stereo not given) [butan-2-ol], the mass density was found to be 770.993 ± 0.52 kg/m3 and the viscosity is 1.002 ± 0.019 mPa·s.

Still in this data set, the particulars now being: 338.15 K; 101.33 kPa; Liquid.
Turning to `CC(C)CO` [2-methyl-1-propanol], the mass density was 765.079 ± 0.51 kg/m3 and the viscosity was 0.9851 ± 0.019 mPa·s.

Consider `CCCCO` [butan-1-ol], for which the mass density was found to be 774.098 ± 0.49 kg/m3 and the viscosity was 1.028 ± 0.019 mPa·s.

Turning to `CC(C)(C)O` [2-methylpropan-2-ol], the mass density amounted to 737.19 ± 0.56 kg/m3 and the viscosity is reported as 0.8734 ± 0.017 mPa·s.

Take `CCC(C)O` (stereo not given) [butan-2-ol]: the mass density is 766.038 ± 0.53 kg/m3 and the viscosity stood at 0.8779 ± 0.017 mPa·s.

The same data set, now with this note: 343.15 K; 101.33 kPa; Liquid.
As to `CC(C)CO` [2-methyl-1-propanol], the mass density was 760.611 ± 0.51 kg/m3 and the viscosity is listed as 0.8767 ± 0.017 mPa·s.

`CCCCO` [butan-1-ol]: the mass density came out at 769.845 ± 0.49 kg/m3 and the viscosity was 0.9306 ± 0.018 mPa·s.

`CC(C)(C)O` [2-methylpropan-2-ol]: the mass density came out at 731.313 ± 0.56 kg/m3 and the viscosity came out at 0.7603 ± 0.016 mPa·s.

With `CCC(C)O` (stereo not given) [butan-2-ol], the mass density was determined as 760.962 ± 0.54 kg/m3 and the viscosity is on record as 0.7769 ± 0.016 mPa·s.
